From patent publication US5175253A, “Binding peptides” (Washington University, priority 1991, dated 1992)
Read-outs that look alike come from different tables or passages of the source. Ends that are not written are not given here.

Key:
[1] = tested on: SEC receptor; test: Competition for binding to, and cross-linking of, the SEC receptor of HepG2 cells; parameters: species or system human
[2] = target: T1, substance P receptor (Rattus norvegicus, UniProt P14600); test: Competition for binding of substance P to a stable transfected cell line expressing the substance P receptor
T1 construct: expressed in transfected cells

[3] = Solubility of peptides in water and DMSO
Experimental: Some of the peptides used as candidate competitors, especially the pentapeptides, were dissolved in dimethylsulfoxide (DMSO) because they were not soluble in water. For all of these tests the same final concentration of DMSO was added to each cell monolayer.

[4] = tested on: SEC receptor; test: Competition for internalization of α1 AT-125I trypsin complexes by HepG2 cells; assay type: cell-based, human; details: 50-fold molar excess, 60 minutes at 37° C., Proteinase K-resistant radioactivity
Experimental: (§1) FIG. 2 presents two bar graphs which show competition for binding and internalization of α1 AT^125 I trypsin complexes by HepG2 cells. For panel a, HepG2 cells were incubated for 2 hours at 4° C. in binding buffer, α1 AT-^125 I trypsin complexes in subsaturating concentrations (50 nM) and competing unlabelled proteins or synthetic peptides in 50-fold molar excess. The cells were then rinsed, homogenized and cell-associated radioactivity determined. Binding in the absence of competitor was arbitrarily designated 0% inhibition of binding on the vertical axis. Results represent mean and 1 standard deviation for 3 separate determinations of each competitor. For panel b, HepG2 cells were incubated for 1 hour at 37° C. in binding buffer, α1 AT^125 I trypsin complexes in subsaturating concentrations (50 nM) and competing unlabelled proteins or synthetic peptides in 50-fold molar excess. […] Internalization in the absence of competitor was arbitrarily designated 0% inhibition of internalization on the vertical axis. Results represent mean and 1 standard deviation for 3 separate determinations of each putative competitor. Partial amino acid sequences for α1 AT and peptides are shown at the top of each panel.
The cells were then rinsed extensively and incubated with Proteinase K for an additional 60 minutes at 4° C. to remove any surface bound radiolabelled ligand. Internalization was defined as radioactivity associated with the resulting cell pellet. […] Higher degrees of inhibition were achieved by higher concentrations of competitors in other tests.

[5] = tested on: SEC receptor; test: Competition for binding of 125I peptide 105Y to HepG2 cells; parameters: species or system human; details: 125I peptide 105Y 50 nM, 2 hrs at 4° C., unlabelled competitor
Experimental: For each test HepG2 cells were incubated for 2 hrs at 4° C. in binding buffer, ^125 I peptide 105Y at saturating concentrations (50 nM) and competing unlabelled synthetic peptides in the concentrations specified on the horizontal axis. […] Binding in the absence of competitor was arbitrarily designated 100% binding on the vertical axis. Each data point and set of error bars represent mean and 1 standard deviation for four separate determinations. Partial amino acid sequences of α1 AT and synthetic peptides are shown at the top of each of panels a, b and c.
Each bar represents mean and 1 standard deviation for 3 separate determinations.

[6] = tested on: SEC receptor; test: Competition for binding of α1 AT-125I trypsin complexes to HepG2 cells; parameters: species or system human; details: complexes 50 nM, competitor in 50-fold molar excess, 2 hrs at 4° C.
Experimental: as §1, with “panel. […]” for “panel.”

[7] = tested on: SEC receptor; test: Direct binding of 125I peptide 105C to HepG2 cells; parameters: species or system human
Experimental: (§2) Left panel a: cells were incubated 2 hours at 4° C. with several different concentrations of ^125 I peptide 105C in the absence (open circles, total ligand binding) or the presence of unlabelled peptide 105C in 200-fold molar excess (filled circles, nonspecific binding). The difference was designated specific binding (open triangles). The cells were then rinsed and cell-associated radioactivity was determined by gamma counting of cell homogenates. Right panel b: cells were incubated for 2 hours at 4° C. with ^125 I peptide 105C in subsaturating concentrations (50 nM) in the absence or presence of unlabelled competing proteins or peptides as indicated on the horizontal axis. The molar excess in fold of each competitor is indicated in parentheses. Binding in the absence of competitor was arbitrarily designated 0% inhibition of binding on the vertical axis.
(§3) The direct binding of peptide 105C to HepG2 cells was also examined. This peptide was radioiodinated by the chloramine T method and purified by reverse phase C:18 chromatography. Separate monolayers of cells were incubated with ^125 I-105C in several different concentrations either in the absence or presence of unlabelled 105C in 200-fold molar excess (FIG. 3, left panel a). […]

[8] = tested on: SEC receptor; test: Competition for binding of 125I peptide 105C to HepG2 cells; parameters: species or system human; details: 125I peptide 105C 50 nM, 2 hours at 4° C.
Experimental: as §2, §3

[9] = tested on: SEC receptor; details: unlabelled competitor; cited from earlier work
[10] = tested on: synthesis of α1 AT; details: cited from earlier work
[11] = target: SEC receptor; details: cited from earlier work

T1 sequence (P14600 whole entry): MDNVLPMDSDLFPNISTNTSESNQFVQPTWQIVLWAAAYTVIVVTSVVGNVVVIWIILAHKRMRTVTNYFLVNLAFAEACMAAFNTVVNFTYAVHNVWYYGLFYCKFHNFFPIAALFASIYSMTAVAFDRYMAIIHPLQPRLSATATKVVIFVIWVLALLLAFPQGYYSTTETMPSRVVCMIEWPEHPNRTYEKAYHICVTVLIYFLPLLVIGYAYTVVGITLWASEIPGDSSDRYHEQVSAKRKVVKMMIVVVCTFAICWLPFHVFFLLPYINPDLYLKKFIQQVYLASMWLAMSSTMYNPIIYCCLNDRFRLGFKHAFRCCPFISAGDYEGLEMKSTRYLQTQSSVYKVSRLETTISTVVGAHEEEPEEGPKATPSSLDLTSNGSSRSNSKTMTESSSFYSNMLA

CSCC[C@H](NC(=O)[C@H](CC(C)C)NC(=O)[C@H](Cc1cnc[nH]1)NC(=O)CNC(=O)[C@@H](NC(=O)[C@H](C)NC(=O)[C@H](Cc1c[nH]c2ccccc12)NC(=O)[C@H](CCC(N)=O)NC(=O)[C@H](CC(N)=O)NC(=O)CNC(=O)[C@H](CC(C)C)NC(=O)[C@H](CCCN=C(N)N)NC(=O)[C@H](CCC(N)=O)NC(=O)[C@@H]1CCC(=O)N1)C(C)C)C(N)=O [bombesin]
competition for binding to, and cross-linking of, the SEC receptor [1]: compete for binding to, and cross-linking of, the SEC receptor
competition for binding of substance P [2]: do not compete for binding of substance P

EVKFNKP [peptide 105B, Glu-Val-Lys-Phe-Asn-Lys-Pro]
solubility [3]: soluble in both water and DMSO

Phe-Val-Tyr-Leu-Ile (FVYLI) [peptide 105C]
inhibition of internalization of α1 AT-125I trypsin complexes [4]: inhibits internalization as effectively as peptide 105Y and unlabelled α1 AT-trypsin complexes
competition for binding of 125I peptide 105Y to HepG2 cells [5]: compete as effectively as peptide 105Y
competition for binding of 125I peptide 105Y to HepG2 cells ([5]; listed as FVYLI): no difference in inhibition of binding
inhibition of binding of α1 AT-125I trypsin complexes to HepG2 cells [6]: inhibits binding
direct binding to HepG2 cells ([7]; 125I-105C with or without unlabelled 105C in 200-fold molar excess): specific and saturable binding
Kd ([7]; 125I-105C, HepG2 cells, 2 hours at 4° C., read-out: point of half-maximal saturation): ~40 nM

SIPPEVKFNKPFVYLI [peptide 105Y, carboxy-terminal fragment, amino acids 359-374, of α1 AT]
inhibition of internalization of α1 AT-125I trypsin complexes [4]: inhibits internalization
inhibition of binding of 125I 105C [8]: inhibited
competition for binding of 125I peptide 105Y to HepG2 cells [5]: compete
blocking of binding of 125I α1 AT-elastase complexes [9]: blocked binding
effect on synthesis of α1 AT [10]: mediated an increase in synthesis of α1 AT
inhibition of binding of α1 AT-125I trypsin complexes to HepG2 cells [6]: inhibits binding
competition for binding of substance P [2]: do not compete for binding of substance P
Kd ([11]; 125I peptide 105Y, HepG2 cells and human blood monocytes, read-out: K2): 40 nM
direct binding of 125I peptide 105Y ([11]; HepG2 cells and human blood monocytes): bound specifically and saturably

amyloid-β-protein
competition for binding to, and cross-linking of, the SEC receptor [1]: compete for binding to, and cross-linking of, the SEC receptor
competition for binding of substance P [2]: do not compete for binding of substance P

native α1 AT: purified human plasma α1-antitrypsin, 55 kDa serum glycoprotein
inhibition of internalization of α1 AT-125I trypsin complexes [4]: no significant inhibition of internalization

α1 ACT-cathepsin G complexes: serpin-enzyme complex
blocking of binding of 125I peptide 105Y [11]: blocked

α1 AT-elastase complexes: complex of α1 AT with neutrophil elastase
blocking of binding of 125I peptide 105Y [11]: blocked
